Assays:
Format in all cases: in vivo, human
[1] = test system: participants with DMD; assay: VBP15-LTE Month 24 PODCI and skeletal maturation by wrist x-ray; conditions: for Bone Age difference to Chronologic Age, mean (SD): LTE Month 24, wrist x-ray
Excerpt: In addition, 39/41 LTE participants had wrist x-ray at Month 24; the mean bone age to chronologic age difference was −1.1 (p<0.001, CI −1.5, −0.7), indicating possible skeletal maturation delay (Table 7).
PODCI is the Pediatrics Outcomes Data Collection Instrument (musculoskeletal disorders). The PODCI is a disease-specific questionnaire developed by the American Academy of Orthopedic Surgeons to measure general health and problems related to bone and muscle conditions in children. A significant increase in mean PODCI upper extremity and physical function standardized score was observed from LTE baseline to Month 24 (7.95±12.54, CI 1.003, 14.897, p=0.0278, n=15) for the combined 2.0 and 6.0 mg/kg/day initial dose group. At the same time, a non-significant decrease in mean PODCI transfer and basic mobility standardized score was observed (−4.38±22.68, CI −16.471, 7.703, p=0.451, n=16) (Table 7).

[2] = test system: participants with DMD; assay: CINRG DNHS corticosteroid-treated external comparator; conditions: vamorolone versus corticosteroid-treated DNHS, 18 months
Excerpt: The consecutive vamorolone trials (VBP15-002, VBP15-003, VBP15-LTE) were open-label with no placebo comparator. Corticosteroid-naïve and corticosteroid-treated DMD participant comparators were group-matched participants from the CINRG DNHS (NCT00468832). The CINRG DNHS was an observational, prospective case-control study of 551 participants (440 with DMD, 111 healthy peers). For group matching between vamorolone-treated participants and CINRG DNHS participants, prespecified criteria were defined for matching within the interim statistical analysis plan (iSAP). Age-matched CINRG DNHS participants included those continuously corticosteroid-naïve over an 18-month period (n=19) or continuously corticosteroid-treated over an 18-month period (n=68). For the 68 corticosteroid-treated participants, as this was an observational cohort, corticosteroid doses and regimens varied based on clinician discretion. Although all 68 participants were treated for 18 months continuously, the age at initiation of corticosteroids varied. Thus, the total duration of corticosteroid treatment was longer than 18 months for most participants. […]
The incidences of physician-reported AEs typically for corticosteroid treatment were determined for participants that had been treated with vamorolone 6.0 mg/kg/day (for any duration), taken from the March 2019 Data Safety Update Report (DSUR) (pharmacovigilance report). […]

[3] = test system: participants with DMD; assay: Physician-reported adverse events in vamorolone trials (DSUR, DSMB report)
Experimental: Study visits took place quarterly, including assessment of clinical laboratory results, vital signs, and AEs. All AEs were coded using the Medical Dictionary for Regulatory Activities (MedDRA version 19.0) system for reporting (preferred term and system organ class). Clinical efficacy assessments were performed at baseline of the VBP15-002 study, at six months (end of VBP15-003 study), and the 12-month midpoint visit of the VBP15-LTE study.
A Data and Safety Monitoring Board report on the VBP15-LTE study covering all participants enrolled in the VBP15-LTE study (inclusive beyond the 12-month midpoint assessment) included three serious AEs (2 myoglobinuria events [in the same participant] and one pneumonia), all deemed unrelated to study drug. For all reported TEAEs, 402 were deemed unrelated to vamorolone, 37 were deemed remotely related, 29 were deemed possibly related, 11 were deemed probably related, and three were deemed definitely related. Of the 14 AEs probably and definitely related to vamorolone, 10 were weight gain, 2 were increased appetite, 1 was Cushingoid features, and 1 was irritability.
The incidences of physician-reported AEs typically for corticosteroid treatment were determined for participants that had been treated with vamorolone 6.0 mg/kg/day (for any duration), taken from the March 2019 Data Safety Update Report (DSUR) (pharmacovigilance report). Incidence rates of Cushingoid features, weight gain, hirsutism, and behavior change were studied (Table 8).

[4] = LTE baseline to Month 24, combined 2.0 and 6.0 mg/kg/day initial dose group
[5] = assigned to high dose (2.0 and 6.0 mg/kg/day) at start of the study
[6] = 6.0 mg/kg/day vamorolone for any duration, n = 38
[7] = VBP15-LTE, DSMB report, all participants

## C[C@@H]1C[C@H]2[C@@H]3CCC4=CC(=O)C=C[C@]4(C)C3=CC[C@]2(C)[C@@]1(O)C(=O)CO [Vamorolone, 17α,21-dihydroxy-16α-methylpregna-1,4,9(11)-triene-3,20-dione]
[1]; n = 39
  Bone Age difference to Chronologic Age, mean (SD): −1.1 (1.2), yr
[1]; n = 39, listed as vamorolone
  Bone Age difference to Chronologic Age, mean (SD): −1.1 yr
[1]; [4]
  PODCI transfer and basic mobility, change from baseline (SD): −4.38±22.68
  PODCI upper extremity and physical function, change from baseline (SD): 7.95±12.54
[1]; [5]
  PODCI transfer and basic mobility, 24 months from LTE baseline, mean (SD): 81.4 (17.5), n = 18
  PODCI transfer and basic mobility, LTE baseline, mean (SD): 86.5 (9.2), n = 19
  PODCI upper extremity and physical function, 24 months from LTE baseline, mean (SD): 82.3 (10.9), n = 18
  PODCI upper extremity and physical function, LTE baseline, mean (SD): 75.3 (15.1), n = 18
[1]; n = 39, chronologic age 8.0 (1.0) yr
  LTE Month 24 Bone Age by wrist x-ray, mean (SD): 6.8 (1.4), n = 39 yr
[2]
  Mean height percentile for age, LS mean difference (SE), ANCOVA: 15.86 percentile
[3]; [6]
  Incidence of physician-reported Cushingoid: 2.6%
  Incidence of physician-reported behavior change: 0%^2
  Incidence of physician-reported hypertrichosis/hirsutism: 0%
  Incidence of physician-reported weight gain: 13.2%
[3]; VBP15-LTE, DSMB report
  Cushingoid features among the 14 AEs probably and definitely related, number: 1
  increased appetite among the 14 AEs probably and definitely related, number: 2
  irritability among the 14 AEs probably and definitely related, number: 1
  weight gain among the 14 AEs probably and definitely related, number: 10
[3]; [7]
  TEAEs deemed definitely related, number: three
  TEAEs deemed possibly related, number: 29
  TEAEs deemed probably related, number: 11
  TEAEs deemed remotely related, number: 37
  TEAEs deemed unrelated to vamorolone, number: 402
[3]; VBP15-LTE, DSMB report, all deemed unrelated to study drug
  serious AEs, number: three
